{"source": "patent US20140179681A1", "about": "“METHODS AND COMPOSITIONS OF TARGETED DRUG DEVELOPMENT” (priority 2010, published 2014)", "target": "T1, EGFR (Homo sapiens, UniProt P00533)", "T1 construct": "host or cells: A431", "T1 sequence (P00533 25-1210)": "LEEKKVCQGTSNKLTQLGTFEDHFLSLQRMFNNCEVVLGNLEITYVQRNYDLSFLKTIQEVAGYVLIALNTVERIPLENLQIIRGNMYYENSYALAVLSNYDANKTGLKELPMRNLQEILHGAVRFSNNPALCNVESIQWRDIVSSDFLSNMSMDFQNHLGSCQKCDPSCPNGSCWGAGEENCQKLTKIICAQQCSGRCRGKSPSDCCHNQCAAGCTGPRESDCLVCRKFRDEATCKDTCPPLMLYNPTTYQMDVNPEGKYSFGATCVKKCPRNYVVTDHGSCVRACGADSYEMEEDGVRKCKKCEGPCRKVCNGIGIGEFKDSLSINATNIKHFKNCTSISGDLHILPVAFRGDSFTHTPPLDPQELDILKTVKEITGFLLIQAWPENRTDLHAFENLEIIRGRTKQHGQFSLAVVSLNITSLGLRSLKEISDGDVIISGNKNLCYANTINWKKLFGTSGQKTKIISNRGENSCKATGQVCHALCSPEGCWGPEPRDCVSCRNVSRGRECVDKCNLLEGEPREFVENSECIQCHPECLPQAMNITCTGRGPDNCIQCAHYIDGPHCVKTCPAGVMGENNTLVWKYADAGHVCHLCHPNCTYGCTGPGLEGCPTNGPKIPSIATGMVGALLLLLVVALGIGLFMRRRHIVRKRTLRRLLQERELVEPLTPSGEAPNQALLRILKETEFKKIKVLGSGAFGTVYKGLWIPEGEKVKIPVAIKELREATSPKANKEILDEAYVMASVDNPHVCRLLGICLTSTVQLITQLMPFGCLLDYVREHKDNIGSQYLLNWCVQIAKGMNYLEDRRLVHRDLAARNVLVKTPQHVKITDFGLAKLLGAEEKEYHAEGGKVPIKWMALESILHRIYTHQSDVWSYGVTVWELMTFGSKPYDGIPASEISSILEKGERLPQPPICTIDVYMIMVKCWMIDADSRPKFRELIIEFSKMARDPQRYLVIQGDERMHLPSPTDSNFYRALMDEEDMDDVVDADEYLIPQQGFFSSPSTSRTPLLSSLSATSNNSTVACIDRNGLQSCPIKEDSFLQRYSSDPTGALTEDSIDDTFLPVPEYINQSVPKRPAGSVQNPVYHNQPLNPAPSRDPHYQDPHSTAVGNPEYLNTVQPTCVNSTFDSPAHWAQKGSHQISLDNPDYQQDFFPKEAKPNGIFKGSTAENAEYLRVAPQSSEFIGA", "assay": "EGFR in-cell Western (ICW) screening protocol (EGFR inhibition assay)", "assay_type": "cell-based", "parameters": "ICW 1 / ICW 2 / ICW Avg: unit not given here", "details": "for ICW Avg / ICW 1 / ICW 2: ICW assay; for ICW Avg: average of runs 1 and 2; for ICW 1: run 1; for ICW 2: run 2; for ICW Screen: Table 11, % Inhibition of EGF dependent EGFR phosphorylation in A431 cells, compound 125 μM in assay", "protocol": "The following example describes general EGFR in-cell Western (ICW) screening protocol. Methods are according to Chen et al. (2005) Analytical Biochemistry 338, 136-142 (incorporated herein by reference), except as otherwise noted.\nCell Plates: A431 cells (ATCC # CRL-1555) were grown in Dulbecco's Modified Eagle Medium (DMEM; ATCC #30-2002) supplemented with 10% fetal bovine serum, 105 units/ml pen/strep (Invitrogen #15140155) and 2.1 mM L-glutamine (ATCC #30-2214). Cells were seeded into 96 well tissue culture plates (BD Falcon #353948) at a density of 30,000 cells per well and incubated at 37° C. with 5% CO2 overnight. Two cell plates were prepared for each compound plate.\nSerum Starvation: The cells were serum starved prior to compound addition. The media was removed by aspiration and the cells washed with PBS (200 μl/well; Invitrogen #20012-027). The PBS was removed by aspiration and replaced with 200 μl of DMEM (ATCC #30-2002) supplemented with 105 units/ml pen/strep (Invitrogen #15140155) and 2.1 mM 1-glutamine (ATCC #30-2214). The cell plates were incubated at 37° C./5% CO2 for 2 hours.\nCompound Plate Preparation: The test compounds were solvated in 100% DMSO (Sigma #472301-2L) at a concentration of 25 mM. Compounds found not to be completely soluble in 100% DMSO at 25 mM were diluted to 10 mM with 100% DMSO and TFA (Fluka #91699) added to a final concentration of 0.2%. 40 μl of test compound was added to the appropriate well of a 96 well plate (Falcon #351190). As controls, 6 μM EGFR kinase inhibitor PD168393 (EMD/Calbiochem #513033) in 100% DMSO and DMSO alone were added to various wells. Prepared compound plates were stored at RT prior to use and at 4° C. long term.\nCompound Dilution Plate Preparation: 250 μl of DMEM supplemented with 1 mg/ml BSA (Sigma A3059-10G) was added to the appropriate wells of a 96 well plate to prepare the compound dilution plates. Using a multichannel pipettor, 1.25 μl of compound from the compound plate was transferred into the compound dilution plate.\nCompound Addition: The starve media was removed from the cell plates by aspiration. Using a multichannel pipettor, the compound dilution plates were mixed by pipetting up and down three times. 50 μl of mixed, diluted compound was added to each of two rows/columns on each of two cell plates. The cell plates with compound were incubated at 37° C./5% CO2 for 4 hours.\nEGF Addition: 20 ng/ml EGF (Upstate #01-107) was prepared in DMEM supplemented with 1 mg/ml BSA. 50 μl of 20 or 0 ng/ml EGF was added to the appropriate wells without the removal of compound. The compound and EGF were mixed by pipetting up and down three times. The plates were incubated at 37° C./5% CO2 for 10 min. In some screening assays the final concentration of EGF used for simulation was 6.6, or 12.5 ng/ml rather than 10 ng/ml.\nFixation and Triton Washing: The EGF+compound was removed by aspiration and 150 μl of freshly prepared Fixation Solution (1×PBS, Sigma P3813-10PK, and 4% Formaldehyde, Pierce #28908) was immediately added. The plates were incubated at RT for 20 min without shaking. The Fixation Solution was removed by aspiration and the plates washed four times with 200 μl each of Triton Wash Solution (1×PBS, Sigma P3813-10PK, and 0.1% Triton X-100, T8787-50ML) for 5 min with gentle shaking.\nBlocking and Probing: Following the last Triton Wash, the plates were blocked for 1.5 h at RT with shaking using 150 μl of Odyssey Blocking Buffer (LI-COR #927-40000). The block was removed by aspiration and 50 μl of diluted primary Ab mix was added. The plates were incubated at 4° C. overnight with gentle shaking. The plates were washed five times with 200 μl of PBST (1×PBS, Sigma P3813-10PK, and 0.1% Tween-20, Sigma P9416-50ML) for 5 min each with shaking 50 μl of diluted secondary Ab mix was added and the plates incubated at RT for 1 h with shaking. The plates were washed 5× with 200 μl of PBST for 5 min each with shaking. […]", "note": "Counter-ions that a name gives are not always drawn.", "data": [{"smiles": "Cc1cc(C)c2nc(Nc3nc4c(c(=O)[nH]3)CCCC4)nc(C)c2c1", "note": "[11483 + TFA]", "values": [{"measurement": "ICW Avg", "value": 29.27}, {"measurement": "ICW 1", "value": 29.55}, {"measurement": "ICW 2", "value": 28.99}]}, {"smiles": "Cc1cc(C)c2nc(Nc3nc(C)cc(=O)[nH]3)nc(C)c2c1", "note": "[11607 + TFA]", "values": [{"measurement": "ICW Avg", "value": 42.71}, {"measurement": "ICW 1", "value": 43.69}, {"measurement": "ICW 2", "value": 41.73}]}, {"smiles": "CC(=O)NC(=S)Nc1ccc(S(=O)(=O)N2CCc3ccccc32)cc1", "note": "[AD4-10103]", "values": [{"measurement": "ICW Screen (ICW Inhibition)", "value": 29.295}]}, {"smiles": "Cc1cc2oc(=O)cc(CN3CCN(CCO)CC3)c2cc1C", "note": "[AD4-10176]", "values": [{"measurement": "ICW Screen", "value": 42.066}]}, {"smiles": "CCc1ccc2oc(=O)cc(CN3CCN(CCO)CC3)c2c1", "note": "[AD4-10178]", "values": [{"measurement": "ICW Screen", "value": 34.907}]}, {"smiles": "COc1ccc(CC(=O)NC(=S)Nc2ccc(S(=O)(=O)NCCc3ccccc3)cc2)cc1", "note": "[AD4-10622]", "values": [{"measurement": "ICW Screen (ICW Inhibition)", "value": 25.347}]}, {"smiles": "COc1cc(NS(=O)(=O)c2ccc(NC(=S)NC(=O)CCc3ccc(F)cc3)cc2)ncn1", "note": "[AD4-11384]", "values": [{"measurement": "ICW Screen (ICW Inhibition)", "value": 28.127}]}, {"smiles": "CCc1nnc(NS(=O)(=O)c2ccc(NC(=S)NC(=O)C34CC5CC(CC(C5)C3)C4)cc2)s1", "note": "[AD4-11385]", "values": [{"measurement": "ICW Screen (ICW Inhibition)", "value": 28.892}]}, {"smiles": "COc1ccc(CC(=O)NC(=S)Nc2ccc(S(=O)(=O)Nc3nc(C)cc(C)n3)cc2)cc1", "note": "[AD4-11395]", "values": [{"measurement": "ICW Screen (ICW Inhibition)", "value": 26.301}]}, {"smiles": "Cc1ccc(OCC(=O)NC(=S)Nc2ccc(S(=O)(=O)N3CCOCC3)cc2)c(Br)c1", "note": "[AD4-11401]", "values": [{"measurement": "ICW Screen (ICW Inhibition)", "value": 25.557}]}, {"smiles": "COc1cc(NS(=O)(=O)c2ccc(NC(=S)NC(=O)CCc3ccccc3)cc2)nc(OC)n1", "note": "[AD4-11405]", "values": [{"measurement": "ICW Screen (ICW Inhibition)", "value": 26.497}]}, {"smiles": "COc1ccc(CC(=O)NC(=S)Nc2ccc(S(=O)(=O)N3CCOCC3)cc2)cc1", "note": "[AD4-11406]", "values": [{"measurement": "ICW Screen (ICW Inhibition)", "value": 26.851}]}, {"smiles": "CCN(c1ccccc1)S(=O)(=O)c1ccc(NC(=S)NC(=O)C2CCCCC2)cc1", "note": "[AD4-11407]", "values": [{"measurement": "ICW Screen (ICW Inhibition)", "value": 27.585}]}, {"smiles": "CN(Cc1ccccc1)S(=O)(=O)c1ccc(NC(=S)NC(=O)C2CCCCC2)cc1", "note": "[AD4-11410]", "values": [{"measurement": "ICW Screen (ICW Inhibition)", "value": 28.101}]}, {"smiles": "CN1CCN(S(=O)(=O)c2ccc(NC(=S)NC(=O)c3ccccc3)cc2)CC1", "note": "[AD4-11420]", "values": [{"measurement": "ICW Screen (ICW Inhibition)", "value": 30.052}]}, {"smiles": "CN1CCN(S(=O)(=O)c2ccc(NC(=S)NC(=O)CCc3ccccc3)cc2)CC1", "note": "[AD4-11424]", "values": [{"measurement": "ICW Screen (ICW Inhibition)", "value": 28.422}]}, {"smiles": "COc1ccc(NS(=O)(=O)c2ccc(NC(=S)NC(=O)C3CCCC3)cc2)cc1", "note": "[AD4-11523]", "values": [{"measurement": "ICW Screen (ICW Inhibition)", "value": 26.098}]}, {"smiles": "COc1cc(OC)nc(NS(=O)(=O)c2ccc(NC(=S)NC(=O)C3CCCC3)cc2)n1", "note": "[AD4-11536]", "values": [{"measurement": "ICW Screen (ICW Inhibition)", "value": 27.431}]}, {"smiles": "CCc1nnc(NS(=O)(=O)c2ccc(NC(=S)NC(=O)/C=C/c3ccccc3)cc2)s1", "note": "[AD4-11861]", "values": [{"measurement": "ICW Screen (ICW Inhibition)", "value": 30.242}]}, {"smiles": "Cc1cc(NS(=O)(=O)c2ccc(NC(=S)NC(=O)/C=C/c3cccs3)cc2)no1", "note": "[AD4-11863]", "values": [{"measurement": "ICW Screen (ICW Inhibition)", "value": 27.36}]}, {"smiles": "CCc1nnc(NS(=O)(=O)c2ccc(NC(=S)NC(=O)/C=C/c3ccc(C)cc3)cc2)s1", "note": "[AD4-11879]", "values": [{"measurement": "ICW Screen (ICW Inhibition)", "value": 25.689}]}, {"smiles": "COc1ccc(NS(=O)(=O)c2ccc(NC(=S)NC(=O)/C=C/c3ccccc3)cc2)nn1", "note": "[AD4-11888]", "values": [{"measurement": "ICW Screen (ICW Inhibition)", "value": 26.355}]}, {"smiles": "CN1CCN(S(=O)(=O)c2ccc(NC(=S)NC(=O)C3CCCC3)cc2)CC1", "note": "[AD4-11973]", "values": [{"measurement": "ICW Screen (ICW Inhibition)", "value": 27.176}]}, {"smiles": "CC(C)(C)NS(=O)(=O)c1ccc(NC(=S)NC(=O)C2CCC2)cc1", "note": "[AD4-11976]", "values": [{"measurement": "ICW Screen (ICW Inhibition)", "value": 26.918}]}, {"smiles": "CN(C1CCCCC1)S(=O)(=O)c1ccc(NC(=S)NC(=O)C2CC2)cc1", "note": "[AD4-11986]", "values": [{"measurement": "ICW Screen (ICW Inhibition)", "value": 25.368}]}, {"smiles": "COc1ccc(NS(=O)(=O)c2ccc(NC(=S)NC(=O)C(C)(C)C)cc2)cc1", "note": "[AD4-11994]", "values": [{"measurement": "ICW Screen (ICW Inhibition)", "value": 27.18}]}, {"smiles": "CCOc1ccc(NS(=O)(=O)c2ccc(NC(=S)NC(=O)CC(C)C)cc2)cc1", "note": "[AD4-12014]", "values": [{"measurement": "ICW Screen (ICW Inhibition)", "value": 25.611}]}, {"smiles": "CN(Cc1ccccc1)S(=O)(=O)c1ccc(NC(=S)NC(=O)C2CCCC2)cc1", "note": "[AD4-12039]", "values": [{"measurement": "ICW Screen (ICW Inhibition)", "value": 29.977}]}, {"smiles": "CC(C)C(=O)NC(=S)Nc1ccc(S(=O)(=O)N(C)Cc2ccccc2)cc1", "note": "[AD4-12051]", "values": [{"measurement": "ICW Screen (ICW Inhibition)", "value": 28.852}]}, {"smiles": "CC(=O)NS(=O)(=O)c1ccc(NC(=S)NC(=O)Cc2cccc3ccccc23)cc1", "note": "[AD4-12071]", "values": [{"measurement": "ICW Screen (ICW Inhibition)", "value": 27.713}]}, {"smiles": "C=CCN(CC=C)S(=O)(=O)c1ccc(NC(=S)NC(=O)/C=C/c2ccccc2)cc1", "note": "[AD4-12092]", "values": [{"measurement": "ICW Screen (ICW Inhibition)", "value": 25.019}]}, {"smiles": "Cc1ccc(NS(=O)(=O)c2ccc(NC(=S)NC(=O)CCc3ccccc3)cc2)cc1C", "note": "[AD4-12103]", "values": [{"measurement": "ICW Screen (ICW Inhibition)", "value": 26.212}]}, {"smiles": "COc1ccc(CC(=O)NC(=S)Nc2ccc(S(=O)(=O)NC(C)(C)C)cc2)cc1", "note": "[AD4-12133]", "values": [{"measurement": "ICW Screen (ICW Inhibition)", "value": 25.058}]}, {"smiles": "O=C(CCc1ccccc1)NC(=S)Nc1ccc(S(=O)(=O)N2CCOCC2)cc1", "note": "[AD4-12147]", "values": [{"measurement": "ICW Screen (ICW Inhibition)", "value": 26.967}]}, {"smiles": "C=CCN(CC=C)S(=O)(=O)c1ccc(NC(=S)NC(=O)/C=C/c2ccc(F)cc2)cc1", "note": "[AD4-12157]", "values": [{"measurement": "ICW Screen (ICW Inhibition)", "value": 26.73}]}, {"smiles": "Cc1cc(C)nc(NS(=O)(=O)c2ccc(NC(=S)NC(=O)C3CCCC3)cc2)n1", "note": "[AD4-12163]", "values": [{"measurement": "ICW Screen (ICW Inhibition)", "value": 26.671}]}, {"smiles": "O=C(NC(=S)Nc1ccc(S(=O)(=O)N2CCc3ccccc32)cc1)C1CCCC1", "note": "[AD4-12291]", "values": [{"measurement": "ICW Screen (ICW Inhibition)", "value": 25.191}]}, {"smiles": "Cc1cc(-c2ccccc2)nc(Nc2nc(C)c3cc(C)c(C)cc3n2)n1", "note": "[compound 11309]", "values": [{"measurement": "ICW Avg", "value": 37.00}, {"measurement": "ICW 1", "value": 33.31}, {"measurement": "ICW 2", "value": 40.70}]}, {"smiles": "CCCc1c[nH]c(Nc2nc(C)c3ccccc3n2)nc1=O", "note": "[compound 12662]", "values": [{"measurement": "ICW Avg", "value": 25.21}, {"measurement": "ICW 1", "value": 21.64}, {"measurement": "ICW 2", "value": 28.79}]}]}
